# Results from PubChem BioAssay (NCI).
#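 Compound exposure: 48 hours, 5 concentrations, 96-well plates. TGI: total growth inhibition.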
# Legend:
# Assay in all cases: growth of human tumour cells (NCI), 48 h
# [1] = system: UO-31 renal
# [2] = system: A549 NSCLC
# [3] = system: LXFL 529 NSCLC
# [4] = system: RPMI-8226 leukemia
# [5] = system: 786-0 renal
# [6] = system: HOP-62 NSCLC
# [7] = system: HCT-116 colon
# [8] = system: UACC-257 melanoma
# [9] = system: KM12 colon
# [10] = system: SNB-19 CNS
# [11] = system: SF-268 CNS
# [12] = system: NCI-H226 lung
# [13] = system: SF-295 CNS
# [14] = system: SN12C renal
# [15] = system: OVCAR-3 ovarian
# [16] = system: UACC-62 melanoma
# [17] = system: HL-60(TB) leukemia
# [18] = system: NCI-H460 lung
# [19] = system: SNB-75 CNS
# [20] = system: CCRF-CEM leukemia
# [21] = system: DMS 114 small cell lung
# [22] = system: SR leukemia
# [23] = system: KM20L2 colon
# [24] = system: HCC-2998 colon
# [25] = system: EKVX NSCLC
# [26] = system: HT29 colon
# [27] = system: M14 melanoma
# [28] = system: U251 CNS
# [29] = system: OVCAR-4 ovarian
# [30] = system: SNB-78 CNS
# [31] = system: HCT-15 colon
# [32] = system: HOP-92 NSCLC
# [33] = system: SK-MEL-5 melanoma
# [34] = system: SK-OV-3 ovarian
# [35] = system: CAKI-1 renal
# [36] = system: MALME-3M melanoma
# [37] = system: MOLT-4 leukemia
# [38] = system: SK-MEL-28 melanoma
# [39] = system: COLO 205 colon
# [40] = system: OVCAR-5 ovarian
# [41] = system: M19-MEL melanoma
# [42] = system: DLD-1 colon
# [43] = system: TK-10 renal
# [44] = system: RXF 393 renal
# [45] = system: LOX IMVI melanoma
# [46] = system: ACHN renal
# [47] = system: SF-539 CNS
# [48] = system: SW-620 colon
# [49] = system: OVCAR-8 ovarian
# [50] = system: IGROV1 ovarian
# [51] = system: DMS 273 small cell lung
# [52] = system: SK-MEL-2 melanoma
# [53] = system: NCI-H23 lung
# [54] = system: HOP-18 NSCLC
# [55] = system: K-562 leukemia
# [56] = system: NCI-H522 lung
# [57] = system: MDA-MB-435
# [58] = system: MDA-N
# [59] = system: MDA-MB-231 breast
# [60] = system: DU-145 prostate
# [61] = system: PC-3 prostate
# [62] = system: A498 renal
# [63] = system: BT-549 breast
# [64] = system: MCF7 breast
# [65] = system: T-47D breast
compound,measurement,setting,value
CCOC(=O)c1nn2c(nc1=O)sc1ccc3ccccc3c12,TGI,[1],> 100 µM
same,TGI,[2],> 100 µM
same,TGI,[3],> 100 µM
same,TGI,[4],> 100 µM
same,TGI,[5],> 100 µM
same,TGI,[6],> 100 µM
same,TGI,[7],> 100 µM
same,TGI,[8],> 100 µM
same,TGI,[9],> 100 µM
same,TGI,[10],> 100 µM
same,TGI,[11],> 100 µM
same,TGI,[12],> 100 µM
same,TGI,[13],> 100 µM
same,TGI,[14],> 100 µM
same,TGI,[15],> 100 µM
same,TGI,[16],> 100 µM
same,TGI,[17],> 100 µM
same,TGI,[18],> 100 µM
same,TGI,[19],> 100 µM
same,TGI,[20],> 100 µM
same,TGI,[21],> 100 µM
same,TGI,[22],> 100 µM
same,TGI,[23],> 100 µM
same,TGI,[24],> 100 µM
same,TGI,[25],> 100 µM
same,TGI,[26],> 100 µM
same,TGI,[27],> 100 µM
same,TGI,[28],> 100 µM
same,TGI,[29],> 100 µM
same,TGI,[30],> 100 µM
same,TGI,[31],> 100 µM
same,TGI,[32],> 100 µM
same,TGI,[33],> 100 µM
same,TGI,[34],> 100 µM
same,TGI,[35],> 100 µM
same,TGI,[36],> 100 µM
same,TGI,[37],> 100 µM
same,TGI,[38],> 100 µM
same,TGI,[39],> 100 µM
same,TGI,[40],> 100 µM
same,TGI,[41],> 100 µM
same,TGI,[42],> 100 µM
same,TGI,[43],> 100 µM
same,TGI,[44],> 100 µM
same,TGI,[45],> 100 µM
same,TGI,[46],> 100 µM
same,TGI,[47],> 100 µM
same,TGI,[48],> 100 µM
same,TGI,[49],> 100 µM
same,TGI,[50],> 100 µM
same,TGI,[51],> 100 µM
same,TGI,[52],> 100 µM
same,TGI,[53],> 100 µM
same,TGI,[54],> 100 µM
same,TGI,[55],> 100 µM
C=C1C(=O)O[C@@H]2C[C@@H](C)[C@@H]3C=CC(=O)[C@@]3(C)[C@@H](O)[C@H]12,TGI,[1],3.65 µM
same,TGI,[2],11.8 µM
same,TGI,[56],0.663 µM
same,TGI,[3],1.68 µM
same,TGI,[4],2.81 µM
same,TGI,[5],5.4 µM
same,TGI,[57],3.39 µM
same,TGI,[6],17.7 µM
same,TGI,[7],4.06 µM
same,TGI,[8],3.09 µM
same,TGI,[9],3.31 µM
same,TGI,[10],7.02 µM
same,TGI,[11],27.9 µM
same,TGI,[12],4.9 µM
same,TGI,[13],6.48 µM
same,TGI,[58],5.66 µM
same,TGI,[14],2.91 µM
same,TGI,[59],7.35 µM
same,TGI,[15],3.72 µM
same,TGI,[16],5.46 µM
same,TGI,[17],2.4 µM
same,TGI,[18],4.46 µM
same,TGI,[19],2.58 µM
same,TGI,[20],2.05 µM
same,TGI,[21],3.84 µM
same,TGI,[22],2.65 µM
same,TGI,[23],3.87 µM
same,TGI,[24],2.85 µM
same,TGI,[25],8.89 µM
same,TGI,[26],3.88 µM
same,TGI,[27],5.63 µM
same,TGI,[28],2.99 µM
same,TGI,[29],10.5 µM
same,TGI,[31],9.54 µM
same,TGI,[33],2.67 µM
same,TGI,[35],1.2 µM
same,TGI,[36],3.87 µM
same,TGI,[37],3.36 µM
same,TGI,[38],3.77 µM
same,TGI,[39],5.11 µM
same,TGI,[40],3.37 µM
same,TGI,[60],15.5 µM
same,TGI,[61],7.22 µM
same,TGI,[41],20.6 µM
same,TGI,[42],1.49 µM
same,TGI,[62],3.52 µM
same,TGI,[43],11.8 µM
same,TGI,[63],2.32 µM
same,TGI,[44],1.35 µM
same,TGI,[45],2.01 µM
same,TGI,[46],6.33 µM
same,TGI,[47],9.36 µM
same,TGI,[48],2.59 µM
same,TGI,[49],5.71 µM
same,TGI,[50],8.1 µM
same,TGI,[64],2.3 µM
same,TGI,[51],4.48 µM
same,TGI,[52],4.04 µM
same,TGI,[53],4.15 µM
same,TGI,[54],3.53 µM
same,TGI,[55],8.34 µM
same,TGI,[65],12.2 µM
